The text below walks through data of US4258180A, “C6-Modified cyclodextrin sulfate salts as complement inhibitors” (American Cyanamid Company, priority 1979, dated 1981).

For assay [1], the system named is complement system. To be noted: British Journal of Experimental Pathology, 33, 327-339 (1952); cited from earlier work.
Assay [2] concerns hereditary angio-neurotic edema. To be noted: literature reports; cited from earlier work.
In assay [3] the target is activated human C1 (Homo sapiens, UniProt P09871). Put plainly: Test Code 026 (C1 inhibitor). The class given is biochemical. To be noted: serial dilution assay, twofold dilutions; higher well number indicates higher activity. From the text:
(§1) An active inhibitor protects C2 from C1 and C4; (ii) Test Code 035 (C3-C9 inhibitor)--This test determines the ability of the late components of human complement (C3-C9) to lyse EAC 142 in the presence of appropriate dilutions of the test compound. An active inhibitor protects EAC 142 from lysis by human C3-C9; (iii) Test Code 036 (C-Shunt inhibitor)--In this test human erythrocytes rendered fragile are lysed in autologous serum via the shunt pathway activated by cobra venom factor in the presence of appropriate dilutions of the test compound. Inhibition of the shunt pathway results in failure of lysis; (iv) Forssman Vasculitis Test--Here, the well known complement dependent lesion, Forssman Vasculitis, is produced in guinea pigs by intradermal injection of rabbit anti-Forssman antiserum. The lesion is measured in terms of diameter, edema and hemorrhage and the extent to which a combined index of these is inhibited by prior intraperitoneal injection of the test compound at 200 mg/kg is then reported, unless otherwise stated; (v) Forssman Shock Test--Lethal shock is produced in guinea pigs by an i.v. injection of anti-Forssman antiserum and the harmonic mean death time of treated guinea pigs is compared with that of simultaneous controls; (vi) Complement Level Reduction Test--In this test, the above dosed guinea pigs, or others, are bled for serum and the complement level is determined in undiluted serum by the capillary tube method of U.S. Pat. No. 3,876,376 and compared to undosed control guinea pigs; and (vii) Cap 50 Test--Here, appropriate amounts of the test compound are added to a pool of guinea pig serum in vitro, after which the undiluted serum capillary tube assay referred to above is run. The concentration of compound inhibiting 50% is reported.

Assay [4] relates to late components of human complement (C3-C9). Kind of assay: Test Code 035 (C3-C9 inhibitor), lysis of EAC 142. The class given is biochemical. To be noted: serial dilution assay, twofold dilutions; higher well number indicates higher activity; N = Negative.
Source text: as §1

Assay [5] relates to shunt pathway. Put plainly: Test Code 036 (C-Shunt inhibitor), lysis of fragile human erythrocytes in autologous serum, cobra venom factor. The class given is biochemical. To be noted: serial dilution assay, twofold dilutions; higher well number indicates higher activity; N = Negative.
Source text: as §1

Where a name gives a salt, the structure may show the parent alone.

As to `Nc1ccc2cc(S(=O)(=O)O)cc(O)c2c1N=Nc1ccc(NC(=O)Nc2ccc(N=Nc3c(N)ccc4cc(S(=O)(=O)O)cc(O)c34)c(S(=O)(=O)O)c2)cc1S(=O)(=O)O` [chlorazol fast pink, 3,3'-ureylenebis-[6-(2-amino-8-hydroxy-6-sulfo-1-naphthylazo)]benzenesulfonic acid, tetrasodium salt], in assay [1], the anticomplementary effect entry is on record as “anticomplementary effect”.
As for `NCCCCCC(=O)O` [epsilon-aminocaproic acid], in assay [2], the “treatment of hereditary angio-neurotic edema” value is “used with success”.
With `NC[C@H]1CC[C@H](C(=O)O)CC1` [tranexamic acid], the “treatment of hereditary angio-neurotic edema” value in assay [2] is listed as “used with success”.
Take `C[C@H]1O[C@@H]2O[C@H]3[C@H](OS(=O)(=O)O)[C@@H](OS(=O)(=O)O)[C@@H](O[C@H]4[C@H](OS(=O)(=O)O)[C@@H](OS(=O)(=O)O)[C@@H](O[C@H]5[C@H](OS(=O)(=O)O)[C@@H](OS(=O)(=O)O)[C@@H](O[C@H]6[C@H](OS(=O)(=O)O)[C@@H](OS(=O)(=O)O)[C@@H](O[C@H]7[C@H](OS(=O)(=O)O)[C@@H](OS(=O)(=O)O)[C@@H](O[C@H]8[C@H](OS(=O)(=O)O)[C@@H](OS(=O)(=O)O)[C@@H](O[C@H]1[C@H](OS(=O)(=O)O)[C@H]2OS(=O)(=O)O)O[C@@H]8C)O[C@@H]7C)O[C@@H]6C)O[C@@H]5C)O[C@@H]4C)O[C@@H]3C` [β-Cyclo[6-deoxy]dextrin poly(H-sulfate)poly-sodium salt] [6,6',6",6'",6"",6'"",6"""-Heptadeoxy-β-cyclodextrin, tetradecakis(H-sulfate), tetradecasodium salt]: the “026 Activity in wells” value in assay [3] came out at 9 wells. Besides, the “035 Activity in wells” value in assay [4] amounted to 4 wells. Also, the “036 Activity in wells” value in assay [5] turned out to be 5 wells.
The corresponding values for `C[C@H]1O[C@@H]2O[C@H]3[C@H](OS(=O)(=O)O)[C@@H](OS(=O)(=O)O)[C@@H](O[C@H]4[C@H](OS(=O)(=O)O)[C@@H](OS(=O)(=O)O)[C@@H](O[C@H]5[C@H](OS(=O)(=O)O)[C@@H](OS(=O)(=O)O)[C@@H](O[C@H]6[C@H](OS(=O)(=O)O)[C@@H](OS(=O)(=O)O)[C@@H](O[C@H]7[C@H](OS(=O)(=O)O)[C@@H](OS(=O)(=O)O)[C@@H](O[C@H]8[C@H](OS(=O)(=O)O)[C@@H](OS(=O)(=O)O)[C@@H](O[C@H]1[C@H](OS(=O)(=O)O)[C@H]2OS(=O)(=O)O)O[C@@H]8C)O[C@@H]7C)O[C@@H]6C)O[C@@H]5C)O[C@@H]4C)O[C@@H]3C` [β-Cyclo[6-deoxy]dextrin poly(H-sulfate)poly-trimethylamine s] [6,6',6",6'",6"",6'"",6"""-Heptadeoxy-β-cyclodextrin, tetradecakis(H-sulfate), tetradecasalt with trimethylamine] are 7 wells, 2 wells and 4 wells.
Turning to heparin, the anticomplementary effect result in assay [1] is reported as “anticomplementary effect”.
